The subject of experiment [1] is normal human endocervical epithelial cells. The experiment in a line: cells. Conditions: 24 h, read-out: Endocervical cells IC50. The class given is cell-based. As to the method: (§1) The potential cytotoxicity of aryl phosphate derivatives of bromo-methoxy ZDV in comparison to N-9, against normal human ectocervical and endocervical epithelial cells (Clonetics Corporation, San Diego, Calif.), was measured using MTT (3-[4,5-dimethylthiazol-2-yl]-2,5-diphenyl tetrazolium bromide) cell viability assays (Boehringer Mannheim Corp., Indianapolis, Ind.) [see, D'Cruz O J, et al., Mol Hum Reprod 1999; 5:421-432; D'Cruz O J, et al., Contraception 1999; 59 (in press); and Uckun F M, et al., Antimicrob Agents Chemther 1998; 42:383-388]. Briefly, exponentially growing ectocervical and endocervical epithelial cells were seeded into 96-well plate at a density of 2×10^5 cells/well and incubated for 24 h at 37° C. prior to drug exposure. On the day of treatment, culture medium was carefully aspirated from the wells and replaced with fresh medium containing drug concentrations ranging from 3.9 μM to 1000 μm. Triplicate wells were used for each treatment. The cells were incubated with the various compounds for 24 hours at 37° C. in a humidified 5% CO2 atmosphere. To each well, 10 μl of MTT (0.5 mg/ml final concentration) was added and the plates were incubated at 37° C. for 4 hours to allow MTT to form formazan crystals by reacting with metabolically active cells. The formazan crystals were solubilized overnight at 37° C. in a solution containing 10% SDS in 0.01 M HCl. The absorbance of each well was measured in a microtiter reader at 540 nm and a reference wavelength of 690 nm. To translate the OD540 values into the number of live cells in each well, the OD540 values were compared to those of standard OD540 versus cell number curves generated for each cell line. The percent cell survival was calculated using the formula: % survival=live cell number[test]/live cell number[control]×100. The results were expressed as IC50 values. The IC50 was defined as the concentration required for 50% reduction in cell survival. Two separate experiments were performed in triplicate to assess the potential cytotoxicity of spermicidal WHI-07 analogues against ectocervical and endocervical epithelial cells.

Experiment [2] concerns normal human ectocervical epithelial cells. The experiment in a line: cells. Type of experiment: cell-based. Conditions: 24 h, read-out: Ectocervical cells IC50. As to the method: as §1
In another experiment the test system is sperm acrosome. The experiment can be described thus: Sperm acrosome and membrane integrity by FITC-lectin staining, confocal, SEM and TEM (Example 4). The class given is cell-based, human. Conditions: for sperm head topography by scanning electron microscopy: 100 μM WHI compounds or 10 μM Cal A23187, 3 hours; for acrosome status by confocal microscopy (FITC-lectin) / acrosome-intact sperm: 100 μM; for acrosome status by confocal microscopy (FITC-lectin) / sperm head membranes by transmission electron microscopy / acrosome-intact sperm: 3 hours; for acrosome-intact sperm: method counts percentages of sperm with intact acrosome. As to the method:
The percentages of sperm with an intact acrosome were evaluated by fluorescence microscopy (Olympus BX-60) following fixation and ethanol permeabilization of the sperm pellets and subsequent staining with fluorescein (FITC)-conjugated Pisum sativum lectin (Sigma). In positive control sperm, the acrosome reaction was induced by incubating (3 hours at 37° C.) the sperm suspension with 10 μm calcium ionophore (Cal) A23187 (Sigma). […] The percentage of sperm positive for PI were determined by flow cytometry using a FACS Vantage flow cytometer (Becton Dickinson and Co., Mountain View, Calif.). The sperm in the swim-up fractions were identified by their characteristic forward and 90° angle light scattering properties [O. J. D'Cruz and G. G. Haas, Jr. Fertil. Steril. 58, 633 (1992)]. All analyses were done using the 488-nm excitation from an krypton/argon laser with a 635-nm band pass filter for PI emission. The percentage of sperm positive for PI staining were determined using cutoff signals for membrane-intact motile sperm.
Ethanol permeabilized and air-dried sperm smears were stained sequentially with the three fluorescent markers, FITC-Pisum sativum, TOTO-3 iodide, and Nile red, each marking a different target (acrosome, nucleus, and plasma membrane of permeabilized sperm respectively). Samples were examined under a BioRad MRC-1024 Laser Scanning Confocal Microscope (BioRad Laboratories, Hercules, Calif.) equipped with a krypton/argon mixed gas laser (excitation lines 488, 568, and 647 nm) and mounted on a Nikon Eclipse E800 series upright microscope. The fluorescence emission of fluorescein, TOTO-3 iodide, and Nile red from the acrosomal region, nucleus, and the plasma membrane of sperm after ethanol permeabilization were simultaneously detected using the 598/40 nm, 522 DF32, and 680 DF32 emission/filter respectively. Confocal images were obtained using a Nikon 60× (NA 1.35) objective lens and Kalman collection filter. Digitized images were processed with the Adobe Photoshop software (Adobe Systems, Mountain View, Calif.). Final images were printed using a Fujix Pictography 3000 (Fuji Photo Film Co., Tokyo, Japan) color printer.
High-resolution low-voltage scanning electron microscopy was utilized for topographical imaging of different membrane domains over the sperm head as described [M. H. Stoffel et al. Molecular. Reprod. Develop. 34, 175 (1993); S. L. Erlandsen et al. Scanning 11, 169 (1989)]. […] Washed sperm suspensions were placed on 0.1% poly-L-lysine-coated glass chips and allowed to adhere to the glass over a 60 minute incubation period on ice. The supernatants were decanted, and adherent cells were fixed in 1% paraformaldehyde and 1% glutaraldehyde in 0.14 M sodium cacodylate buffer for 3 hours. To preserve plasma membrane integrity, sperm were post-fixed in 1% osmium tetroxide (OSO4) containing 0.1% ruthenium red in 0.14 M cacodylate buffer for 1 hour at 4° C. All samples were dehydrated through an ascending ethanol series, critical point dried, and coated with approximately 2 nm of platinum using ion beam sputtering with argon (4 mA at 10 ke V; Ion Tech Ltd., Middlesex, England). All samples were examined in a Hitachi S-900 SEM at an accelerating voltage of 2 keV. Sperm were observed under low magnification (×2,000-5000) and representative sperm were photographed under intermediate magnification (×18,000-25,000). In each specimen evaluated, at least 200 sperm were scanned for the intactness of sperm acrosomal region.
For transmission electron microscopy, treated sperm were fixed in 3% glutaraldehyde in 5% sucrose in 0.2 M cacodylate buffer for 3 hours at room temperature. The samples were post-fixed in 1% OSO4, 5% sucrose and 0.1% ruthenium red for 2 hours at 4° C. The samples were dehydrated in ascending ethanol series, and embedded in Spurr's epoxy. Thin sections (90 nm) were prepared on a Reichert-Jung Ultracut E and stained with uranyl acetate and lead citrate.

The mark [3] stands for this setting: MTT, mean ± SD of two experiments.
[4] abbreviates: Homo sapiens, Epithelial cell, MTT, mean ± SD of two experiments.

Read-outs that look alike come from different tables or passages of the source.

A word on the IC50: it is the concentration that gives 50% inhibition. For “5-Bromo-6-methoxy-5,6-dihydro-3′-azidothymidine 5′-[Phenyl methoxyalaninyl phosphate] [WHI-04]”, the IC50 in experiment [1] (setting [3]) and in experiment [2] (setting [3]) was more than 1000 µM in each case.
For “5-Bromo-6-methoxy-5,6-dihydro-3′-azidothymidine-5′-[(p-Fluorophenyl methoxyalaninyl phosphate] [WHI-06]”, the IC50 came out at 939 ± 157 µM in experiment [1] (setting [3]) and 304 ± 79 µM in experiment [2] (setting [3]).
Turning to “5-bromo-6-methoxy-5,6-dihydro-3 ′-azidothymidine-5 ′-(p-methoxyphenyl) methoxyalaninyl phosphate [WHI-05]”, the IC50 in experiment [1] (setting [3]) stood at 388 ± 38 µM. Further, the IC50 in experiment [2] (setting [3]) was more than 1000 µM. In addition, in the experiment with sperm acrosome, the “sperm head topography by scanning electron microscopy” value is “intact acrosomes”; the “acrosome status by confocal microscopy (FITC-lectin)” value (“acrosome status” for short) is “uniform, bright green fluorescence”; the “sperm head membranes by transmission electron microscopy” value is “intactness of the plasma membrane, outer, and inner acrosomal membranes”; the acrosome-intact sperm is on record as 97.0±2.0.
Regarding `CCCCCCCCCc1ccc(OCCOCCOCCOCCOCCOCCOCCOCCOCCO)cc1` [Compound N-9, nonoxynol-9, reference compound], the values for the IC50 in experiment [1] (setting [4]) and in experiment [2] (setting [4]) were 16 ± 5 µM and 22 ± 8 µM, respectively. The “acrosome status” value in the experiment with sperm acrosome is “only acrosome-reacted sperm”.
In the case of `COC(=O)C(C)NP(=O)(OCC1OC(N2C(=O)NC(=O)C(C)(Br)C2OC)CC1N=[N+]=[N-])Oc1ccc(Br)cc1` (stereo not shown) [WHI-07, 5-Bromo-6-methoxy-5,6-dihydro-3′-azidothymidine-5′-(p-Bromophenyl Methoxyalaninyl Phosphate)], the IC50 in experiment [1] (Homo sapiens, Epithelial cell) turned out to be 312 ± 38 µM. In addition, the concentration for half-maximal inhibition (IC50) in experiment [2] (Homo sapiens, Epithelial cell) is more than 1000 µM. In the experiment on sperm acrosome, the “sperm head topography by scanning electron microscopy” value is recorded as “mild acrosomal membrane ruffling”; the “acrosome status” value is reported as “uniform, bright green fluorescence”; the “sperm head membranes by transmission electron microscopy” value was “intactness of the plasma membrane, outer, and inner acrosomal membranes”; the acrosome-intact sperm is given as 93.0±5.6.

The record behind these values is US6482805B2 (Parker Hughes Institute, priority 1998, dated 2002).
